# Reference: patent US12503436B2, “Compounds and compositions for treating conditions associated with STING activity” (NOVARTIS PHARMA AG, priority 2021, dated 2025)
# Molecular target: STING (Homo sapiens, UniProt Q86WV6, G230A/H232R/R293Q/R71H)
# Assay: STING reporter assay in THP1-Dual KO-IFNAR2 cells (2′3′cGAMP stimulation, luciferase reporter)
# Type: cell-based
# Conditions: 15 μM 2′3′cGAMP stimulation, 24 h, read-out: Pharmaron, THP1_IFNAR2 STING 24 h Luci Normalized: GeoMean EC50
# Procedure, shortened: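 THP1-Dual KO-IFNAR2 cells (2×10E6 cells/mL) with compounds at 0.0017-100 μM final, stimulated with 15 μM final 2′3′cGAMP delivered by Lipofectamine 2000; 24 h at 37 °C. Luciferase in supernatant read with QUANTI-Luc Plus; EC50 derived from luminescence.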
# STING, sequence (Q86WV6 whole entry R71H/G230A/H232R/R293Q): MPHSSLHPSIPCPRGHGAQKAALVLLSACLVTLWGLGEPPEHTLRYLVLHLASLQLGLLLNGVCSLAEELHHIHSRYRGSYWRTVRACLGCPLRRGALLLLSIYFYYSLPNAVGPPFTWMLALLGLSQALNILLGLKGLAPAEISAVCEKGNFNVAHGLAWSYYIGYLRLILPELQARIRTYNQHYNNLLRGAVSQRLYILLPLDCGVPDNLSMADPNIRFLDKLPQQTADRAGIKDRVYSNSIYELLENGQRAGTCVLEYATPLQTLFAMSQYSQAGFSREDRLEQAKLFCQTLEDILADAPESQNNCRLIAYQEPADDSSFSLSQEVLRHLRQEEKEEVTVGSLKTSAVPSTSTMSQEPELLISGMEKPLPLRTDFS
row,SMILES,EC50 [µM]
1,"CC(=O)Nc1c[nH]c2c(F)cc(COCc3ccc(C(F)(F)F)cc3)cc12 [Compound 276, N-(7-fluoro-5-(((4-(trifluoromethyl)benzyl)oxy)methyl)-1H-indol-3-yl)acetamide]",1 to 5
2,"CC(=O)Nc1c[nH]c2c(F)cc(OCCC3CCN(CC(F)(F)F)CC3)cc12 [Compound 277, N-(7-fluoro-5-(2-(1-(2,2,2-trifluoroethyl)piperidin-4-yl)ethoxy)-1H-indol-3-yl)acetamide]",5 to 100
3,"CC(=O)Nc1c[nH]c2ccc(OCCC3(O)CCC(F)(F)CC3)cc12 [Compound 278, N-(5-(2-(4,4-difluoro-1-hydroxycyclohexyl)ethoxy)-1H-indol-3-yl)acetamide]",5 to 100
4,"CC(=O)Nc1c[nH]c2c(C)cc(OCCC3CCN(CC(F)(F)F)CC3)cc12 [Compound 281, N-(7-methyl-5-(2-(1-(2,2,2-trifluoroethyl)piperidin-4-yl)ethoxy)-1H-indol-3-yl)acetamide]",5 to 100
5,"CC(=O)Nc1c[nH]c2ccc(C(O)CCc3ccc(C(F)(F)F)cc3)cc12 (centres unmarked) [Compound 282, N-(5-(1-hydroxy-3-(4-(trifluoromethyl)phenyl)propyl)-1H-indol-3-yl)acetamide]",1 to 5
6,"CC(=O)Nc1c[nH]c2ccc(CC(C)Oc3ccc(C(F)(F)F)cc3)cc12 (centres unmarked) [Compound 287, N-(5-(2-(4-(trifluoromethyl)phenoxy)propyl)-1H-indol-3-yl)acetamide]",1 to 5
7,"CC(=O)Nc1c[nH]c2ccc(CCOC3CCN(CC(F)(F)F)CC3)cc12 [Compound 288, N-(5-(2-((1-(2,2,2-trifluoroethyl)piperidin-4-yl)oxy)ethyl)-1H-indol-3-yl)acetamide]",5 to 100
8,"CC(=O)Nc1c[nH]c2ccc(OCC3(c4ccc(C(F)(F)F)cc4)CC3)cc12 [Compound 289, N-(5-((1-(4-(trifluoromethyl)phenyl)cyclopropyl)methoxy)-1H-indol-3-yl)acetamide]",1 to 5
9,"CCC(=O)Nc1c[nH]c2ccc(Cc3cc(C)ccc3O)cc12 [Compound 290, N-(5-(2-hydroxy-5-methylbenzyl)-1H-indol-3-yl)propionamide]",5 to 100
10,"CC(=O)Nc1c[nH]c2ccc(OCC[C@@H]3C[C@@H]4CN(C)C[C@@H]4C3)cc12 [Compound 292, N-(5-(2-((3aR,5r,6aS)-2-methyloctahydrocyclopenta[c]pyrrol-5-yl)ethoxy)-1H-indol-3-yl)acetamide]",5 to 100
11,CC(=O)Nc1c[nH]c2ccc(CCO[C@@H]3C[C@@H]4CN(CC(F)(F)F)C[C@@H]4C3)cc12 [Compound 293],5 to 100
12,"CO[C@H]1C[C@H](C(=O)Nc2c[nH]c3ccc(O[C@H]4C[C@@H](c5ccc(C(F)(F)F)cc5)C4)cc23)C1 [Compound 295, trans-3-methoxy-N-(5-(cis-3-(4-(trifluoromethyl)phenyl)cyclobutoxy)-1H-indol-3-yl)cyclobutane-1-carboxamide]",0.04 to 0.2
13,"O=C(Nc1c[nH]c2ccc(O[C@H]3C[C@@H](c4ccc(C(F)(F)F)cc4)C3)cc12)C1(F)CC1 [Compound 302, 1-fluoro-N-(5-(cis-3-(4-(trifluoromethyl)phenyl)cyclobutoxy)-1H-indol-3-yl)cyclopropane-1-carboxamide]",0.2 to 1
14,"CN1CC(C(=O)Nc2c[nH]c3ccc(OCC[C@@H]4C[C@@H]5CN(CC(F)(F)F)C[C@@H]5C4)cc23)C1 [Compound 303, 1-methyl-N-(5-(2-((3aR,5r,6aS)-2-(2,2,2-trifluoroethyl)octahydrocyclopenta[c]pyrrol-5-yl)ethoxy)-1H-indol-3-yl)azetidine-3-carboxamide]",5 to 100
15,"COCC1(C(=O)Nc2c[nH]c3ccc(OCC[C@@H]4C[C@@H]5CN(CC(F)(F)F)C[C@@H]5C4)cc23)CC1 [Compound 305, 1-(methoxymethyl)-N-(5-(2-((3aR,5r,6aS)-2-(2,2,2-trifluoroethyl)octahydrocyclopenta[c]pyrrol-5-yl)ethoxy)-1H-indol-3-yl)cyclopropane-1-carboxamide]",1 to 5
16,"CN1CC(C(=O)Nc2c[nH]c3ccc(OCCc4ccc(C(F)(F)F)cc4)cc23)C1 [Compound 311, 1-methyl-N-(5-(4-(trifluoromethyl)phenethoxy)-1H-indol-3-yl)azetidine-3-carboxamide]",1 to 5

# Now from value to compound:
row,EC50 [µM],SMILES
1,1 to 5,"CC(=O)Nc1c[nH]c2ccc(COC[C@@H]3[C@H]4CN(CC(F)(F)F)C[C@@H]34)cc12 [Compound 274, N-(5-((((1R,5S,6r)-3-(2,2,2-trifluoroethyl)-3-azabicyclo[3.1.0]hexan-6-yl)methoxy)methyl)-1H-indol-3-yl)acetamide]"
2,1 to 5,"CC(=O)Nc1c[nH]c2ccc(CCC(C)(C)C3CCN(CC(F)(F)F)CC3)cc12 [Compound 275, N-(5-(3-methyl-3-(1-(2,2,2-trifluoroethyl)piperidin-4-yl)butyl)-1H-indol-3-yl)acetamide]"
3,0.2 to 1,"CC(=O)Nc1c[nH]c2ccc(OCC[C@@H]3C[C@@H]4CN(CC(F)(F)F)C[C@@H]4C3)cc12 [Compound 283, N-(5-(2-((3aR,5r,6aS)-2-(2,2,2-trifluoroethyl)octahydrocyclopenta[c]pyrrol-5-yl)ethoxy)-1H-indol-3-yl)acetamide]"
4,0.2 to 1,"CC(=O)Nc1c[nH]c2ccc(CC(O)Cc3ccc(C(F)(F)F)cc3)cc12 (centres unmarked) [Compound 284, N-(5-(2-hydroxy-3-(4-(trifluoromethyl)phenyl)propyl)-1H-indol-3-yl)acetamide]"
5,0.2 to 1,"CCC(=O)Nc1c[nH]c2ccc(COc3ccc(C)cc3)cc12 [Compound 291, N-(5-((p-tolyloxy)methyl)-1H-indol-3-yl)propionamide]"
6,0.04 to 0.2,"CC1(C(=O)Nc2c[nH]c3ccc(OCc4ccc(C(F)(F)F)cc4)cc23)CCC1 [Compound 294, 1-methyl-N-(5-((4-(trifluoromethyl)benzyl)oxy)-1H-indol-3-yl)cyclobutane-1-carboxamide]"
7,0.04 to 0.2,"CO[C@H]1C[C@H](C(=O)Nc2c[nH]c3ccc(OCC[C@@H]4C[C@@H]5CN(CC(F)(F)F)C[C@@H]5C4)cc23)C1 [Compound 296, trans-3-methoxy-N-(5-(2-((3aR,5r,6aS)-2-(2,2,2-trifluoroethyl)octahydrocyclopenta[c]pyrrol-5-yl)ethoxy)-1H-indol-3-yl)cyclobutane-1-carboxamide]"
8,0.2 to 1,"COC1CC(C(=O)Nc2c[nH]c3ccc(CCOc4ccc(C(F)(F)F)cc4)cc23)C1 (centres unmarked) [Compound 297, 3-methoxy-N-(5-(2-(4-(trifluoromethyl)phenoxy)ethyl)-1H-indol-3-yl)cyclobutane-1-carboxamide]"
9,0.2 to 1,"COCCN1CC(C(=O)Nc2c[nH]c3ccc(OCCc4ccc(C(F)(F)F)cc4)cc23)C1 [Compound 298, 1-(2-methoxyethyl)-N-(5-(4-(trifluoromethyl)phenethoxy)-1H-indol-3-yl)azetidine-3-carboxamide]"
10,0.2 to 1,"O=C(Nc1c[nH]c2ccc(OCCc3ccc(C(F)(F)F)cc3)cc12)C1CN(CCC(F)(F)F)C1 [Compound 299, N-(5-(4-(trifluoromethyl)phenethoxy)-1H-indol-3-yl)-1-(3,3,3-trifluoropropyl)azetidine-3-carboxamide]"
11,0.04 to 0.2,"CO[C@H]1C[C@H](C(=O)Nc2c[nH]c3ccc(OCc4ccc(C(F)(F)F)cc4)cc23)C1 [Compound 300, trans-3-methoxy-N-(5-((4-(trifluoromethyl)benzyl)oxy)-1H-indol-3-yl)cyclobutane-1-carboxamide]"
12,0.2 to 1,"CC1(C(=O)Nc2c[nH]c3ccc(OCc4ccc(C(F)(F)F)cc4)cc23)CC1 [Compound 301, 1-methyl-N-(5-((4-(trifluoromethyl)benzyl)oxy)-1H-indol-3-yl)cyclopropane-1-carboxamide]"
13,0.2 to 1,"N#CC1CCC1C(=O)Nc1c[nH]c2ccc(OCC[C@@H]3C[C@@H]4CN(CC(F)(F)F)C[C@@H]4C3)cc12 (stereo partly drawn) [Compound 304, 2-cyano-N-(5-(2-((3aR,5r,6aS)-2-(2,2,2-trifluoroethyl)octahydrocyclopenta[c]pyrrol-5-yl)ethoxy)-1H-indol-3-yl)cyclobutane-1-carboxamide]"
14,0.2 to 1,"CC1(C(=O)Nc2c[nH]c3ccc(OCC[C@@H]4C[C@@H]5CN(CC(F)(F)F)C[C@@H]5C4)cc23)CCOC1 (stereo partly drawn) [Compound 306, 3-methyl-N-(5-(2-((3aR,5r,6aS)-2-(2,2,2-trifluoroethyl)octahydrocyclopenta[c]pyrrol-5-yl)ethoxy)-1H-indol-3-yl)tetrahydrofuran-3-carboxamide]"
15,0.2 to 1,"O=C(Nc1c[nH]c2ccc(OCC[C@@H]3C[C@@H]4CN(CC(F)(F)F)C[C@@H]4C3)cc12)C1CC1(F)F (stereo partly drawn) [Compound 307, 2,2-difluoro-N-(5-(2-((3aR,5r,6aS)-2-(2,2,2-trifluoroethyl)octahydrocyclopenta[c]pyrrol-5-yl)ethoxy)-1H-indol-3-yl)cyclopropane-1-carboxamide]"
16,0.04 to 0.2,"O=C(Nc1c[nH]c2ccc(CCOc3ccc(C(F)(F)F)cc3)cc12)C1CC(CO)C1 (centres unmarked) [Compound 308, 3-(hydroxymethyl)-N-(5-(2-(4-(trifluoromethyl)phenoxy)ethyl)-1H-indol-3-yl)cyclobutane-1-carboxamide]"
17,0.04 to 0.2,"CC1(C(=O)Nc2c[nH]c3ccc(CCOc4ccc(C(F)(F)F)cc4)cc23)CCC1 [Compound 309, 1-methyl-N-(5-(2-(4-(trifluoromethyl)phenoxy)ethyl)-1H-indol-3-yl)cyclobutane-1-carboxamide]"
18,0.04 to 0.2,"O=C(Nc1c[nH]c2ccc(CCOc3ccc(C(F)(F)F)cc3)cc12)C1CC(O)C1 (centres unmarked) [Compound 310, 3-hydroxy-N-(5-(2-(4-(trifluoromethyl)phenoxy)ethyl)-1H-indol-3-yl)cyclobutane-1-carboxamide]"
19,0.04 to 0.2,"O=C(Nc1c[nH]c2ccc(OCCc3ccc(C(F)(F)F)cc3)cc12)C1CC(CO)C1 (centres unmarked) [Compound 312, 3-(hydroxymethyl)-N-(5-(4-(trifluoromethyl)phenethoxy)-1H-indol-3-yl)cyclobutane-1-carboxamide]"
